Reference: patent US8048927B2 (Besins Healthcare Luxembourg, priority 2004, dated 2011)

Experiment: pharmacokinetics of 4-hydroxy tamoxifen gel in healthy premenopausal women (Example 3)
Type: in vivo, human
Settings: for Plasma concentration of 4-hydroxy tamoxifen, Mean ± SD / T(1stC < LOQ), first timepoint at which the plasma concentration was below the limit of quantification, Mean ± SD / Plasma concentration of 4-hydroxy tamoxifen, Range / AUC0-24, Mean ± SD / Cav = AUC0-24/24, Mean ± SD / Cmax, Mean ± SD / t1/2, Range / tmax, Mean ± SD: gel 57 mg/100 g; for T(1stC < LOQ), first timepoint at which the plasma concentration was below the limit of quantification, Mean ± SD: after last administration; for AUC0-24, Mean ± SD / Cav = AUC0-24/24, Mean ± SD / Cmax, Mean ± SD / t1/2, Range / tmax, Mean ± SD: last administration, day 25 of second cycle
Procedure: Each participant applied the gel daily for the duration of two menstrual cycles.
At the end of a menstrual cycle, each patient received a single dose, after which serial blood samples were collected at 0, 0.5, 1, 1.5, 2, 3, 4, 6, 12, 18, 24, 36, 48, and 72 hours.
On the first day of the following menstruation, treatment, which consisted of daily application of the gel over two menstrual cycles, began. Blood samples were collected 24 hours following the morning application of gel on days 7, 20 and 25 of the first and second cycles. On the last day of administration, day 25 of the second menstrual cycle, serial blood samples were collected prior to application and at 0.5, 1, 1.5, 2, 3, 4, 6, 12, 18, 24, 36, 48, and 72 hours after application of the gel.

CCC(=C(c1ccc(O)cc1)c1ccc(OCCN(C)C)cc1)c1ccccc1 [4-hydroxy tamoxifen, 1-[4-(2-N-dimethylaminoethoxy)phenyl]-1-(4-hydroxyphenyl)-2-phenylbut-1-ene]
Plasma concentration of 4-hydroxy tamoxifen, Mean ± SD (1 mg/day, First cycle Day 25, 24 hr after application): 0.0198 ± 0.0162 ng/mL
Plasma concentration of 4-hydroxy tamoxifen, Mean ± SD (1 mg/day, Second cycle Day 7, 24 hr after application): 0.0222 ± 0.0164 ng/mL
Plasma concentration of 4-hydroxy tamoxifen, Mean ± SD (1 mg/day, Second cycle Day 20, 24 hr after application): 0.0244 ± 0.0201 ng/mL
Plasma concentration of 4-hydroxy tamoxifen, Mean ± SD (1 mg/day, Second cycle Day 25, 0 hr (24 hours after Day 24 application, prior to final application)): 0.0272 ± 0.0208 ng/mL
Plasma concentration of 4-hydroxy tamoxifen, Mean ± SD (1 mg/day, Second cycle Day 25, 0.5 hr after application): 0.0259 ± 0.0187 ng/mL
Plasma concentration of 4-hydroxy tamoxifen, Mean ± SD (1 mg/day, Second cycle Day 25, 1 hr after application): 0.0287 ± 0.0195 ng/mL
Plasma concentration of 4-hydroxy tamoxifen, Mean ± SD (1 mg/day, Second cycle Day 25, 1.5 hr after application): 0.0256 ± 0.0178 ng/mL
Plasma concentration of 4-hydroxy tamoxifen, Mean ± SD (1 mg/day, Second cycle Day 25, 2 hr after application): 0.0251 ± 0.018 ng/mL
Plasma concentration of 4-hydroxy tamoxifen, Mean ± SD (1 mg/day, Second cycle Day 25, 3 hr after application): 0.0248 ± 0.0205 ng/mL
Plasma concentration of 4-hydroxy tamoxifen, Mean ± SD (1 mg/day, Second cycle Day 25, 4 hr after application): 0.0268 ± 0.0233 ng/mL
Plasma concentration of 4-hydroxy tamoxifen, Mean ± SD (1 mg/day, Second cycle Day 25, 6 hr after application): 0.025 ± 0.0182 ng/mL
Plasma concentration of 4-hydroxy tamoxifen, Mean ± SD (1 mg/day, Second cycle Day 25, 12 hr after application): 0.0283 ± 0.0229 ng/mL
Plasma concentration of 4-hydroxy tamoxifen, Mean ± SD (1 mg/day, Second cycle Day 25, 18 hr after application): 0.0234 ± 0.0174 ng/mL
Plasma concentration of 4-hydroxy tamoxifen, Mean ± SD (1 mg/day, Second cycle Day 26, 24 hr after last application): 0.026 ± 0.0196 ng/mL
Plasma concentration of 4-hydroxy tamoxifen, Mean ± SD (1 mg/day, Second cycle Day 26, 36 hr after last application): 0.0257 ± 0.0184 ng/mL
Plasma concentration of 4-hydroxy tamoxifen, Mean ± SD (1 mg/day, Second cycle Day 27, 48 hr after last application): 0.022 ± 0.016 ng/mL
Plasma concentration of 4-hydroxy tamoxifen, Mean ± SD (1 mg/day, Second cycle Day 28, 72 hr after last application): 0.0189 ± 0.0124 ng/mL
T(1stC < LOQ), first timepoint at which the plasma concentration was below the limit of quantification, Mean ± SD (1 mg/day): 236 ± 72 h
Plasma concentration of 4-hydroxy tamoxifen, Mean ± SD (1 mg/day, after the second cycle, +5 days): 0.0114 ± 0.0082 ng/mL
Plasma concentration of 4-hydroxy tamoxifen, Range (1 mg/day, after the second cycle, +8 days): (0-14.8) pg/mL
AUC0-24, Mean ± SD (1 mg/day): 0.619 ± 0.466 ng·h/mL
Cav = AUC0-24/24, Mean ± SD (1 mg/day): 0.0258 ± 0.0194 ng/mL
Cmax, Mean ± SD (1 mg/day): 0.0351 ± 0.0224 ng/mL
t1/2, Range (1 mg/day): (58-118) hr
tmax, Mean ± SD (1 mg/day): 12.8 ± 14.9 h
Plasma concentration of 4-hydroxy tamoxifen, Range (2 mg/day, First cycle Day 1, 0 hr): (0-0) pg/mL
Plasma concentration of 4-hydroxy tamoxifen, Mean ± SD (2 mg/day, First cycle Day 7, 24 hr after application): 0.0269 ± 0.0182 ng/mL
Plasma concentration of 4-hydroxy tamoxifen, Mean ± SD (2 mg/day, First cycle Day 20, 24 hr after application): 0.044 ± 0.0292 ng/mL
Plasma concentration of 4-hydroxy tamoxifen, Mean ± SD (2 mg/day, First cycle Day 25, 24 hr after application): 0.0454 ± 0.031 ng/mL
Plasma concentration of 4-hydroxy tamoxifen, Mean ± SD (2 mg/day, Second cycle Day 7, 24 hr after application): 0.0422 ± 0.0248 ng/mL
Plasma concentration of 4-hydroxy tamoxifen, Mean ± SD (2 mg/day, Second cycle Day 20, 24 hr after application): 0.0389 ± 0.0271 ng/mL
Plasma concentration of 4-hydroxy tamoxifen, Mean ± SD (2 mg/day, Second cycle Day 25, 0 hr (24 hours after Day 24 application, prior to final application)): 0.0432 ± 0.0277 ng/mL
Plasma concentration of 4-hydroxy tamoxifen, Mean ± SD (2 mg/day, Second cycle Day 25, 0.5 hr after application): 0.0445 ± 0.0299 ng/mL
Plasma concentration of 4-hydroxy tamoxifen, Mean ± SD (2 mg/day, Second cycle Day 25, 1 hr after application): 0.0405 ± 0.0251 ng/mL
Plasma concentration of 4-hydroxy tamoxifen, Mean ± SD (2 mg/day, Second cycle Day 25, 1.5 hr after application): 0.0368 ± 0.0211 ng/mL
Plasma concentration of 4-hydroxy tamoxifen, Mean ± SD (2 mg/day, Second cycle Day 25, 2 hr after application): 0.0368 ± 0.0216 ng/mL
Plasma concentration of 4-hydroxy tamoxifen, Mean ± SD (2 mg/day, Second cycle Day 25, 3 hr after application): 0.0361 ± 0.0206 ng/mL
Plasma concentration of 4-hydroxy tamoxifen, Mean ± SD (2 mg/day, Second cycle Day 25, 4 hr after application): 0.0381 ± 0.0212 ng/mL
Plasma concentration of 4-hydroxy tamoxifen, Mean ± SD (2 mg/day, Second cycle Day 25, 6 hr after application): 0.041 ± 0.0291 ng/mL
Plasma concentration of 4-hydroxy tamoxifen, Mean ± SD (2 mg/day, Second cycle Day 25, 12 hr after application): 0.0451 ± 0.0306 ng/mL
Plasma concentration of 4-hydroxy tamoxifen, Mean ± SD (2 mg/day, Second cycle Day 25, 18 hr after application): 0.0398 ± 0.0255 ng/mL
Plasma concentration of 4-hydroxy tamoxifen, Mean ± SD (2 mg/day, Second cycle Day 26, 24 hr after last application): 0.044 ± 0.033 ng/mL
Plasma concentration of 4-hydroxy tamoxifen, Mean ± SD (2 mg/day, Second cycle Day 26, 36 hr after last application): 0.0421 ± 0.0315 ng/mL
Plasma concentration of 4-hydroxy tamoxifen, Mean ± SD (2 mg/day, Second cycle Day 27, 48 hr after last application): 0.0381 ± 0.0253 ng/mL
Plasma concentration of 4-hydroxy tamoxifen, Mean ± SD (2 mg/day, Second cycle Day 28, 72 hr after last application): 0.0332 ± 0.0222 ng/mL
T(1stC < LOQ), first timepoint at which the plasma concentration was below the limit of quantification, Mean ± SD (2 mg/day): 326 ± 97 h
Plasma concentration of 4-hydroxy tamoxifen, Mean ± SD (2 mg/day, after the second cycle, +5 days): 0.0204 ± 0.0173 ng/mL
Plasma concentration of 4-hydroxy tamoxifen, Mean ± SD (2 mg/day, after the second cycle, +8 days): 0.0108 ± 0.0134 ng/mL
Plasma concentration of 4-hydroxy tamoxifen, Range (2 mg/day, after the second cycle, +12 days): (0-30.4) pg/mL
AUC0-24, Mean ± SD (2 mg/day): 0.998 ± 0.653 ng·h/mL
Cav = AUC0-24/24, Mean ± SD (2 mg/day): 0.0416 ± 0.0272 ng/mL
Cmax, Mean ± SD (2 mg/day): 0.0516 ± 0.0317 ng/mL
t1/2, Range (2 mg/day): (49-101) hr
tmax, Mean ± SD (2 mg/day): 11.8 ± 12.3 h
plasma concentrations after the last gel application (72 hours after the last gel application): remained detectable
plasma concentrations of 4-hydroxy tamoxifen after a single dose (single 0.5 mg dose): did not produce detectable plasma concentrations
patients with detectable plasma concentrations (>5 pg/mL) (single dose of 1 mg): 6 of 12
plasma concentrations of 4-hydroxy tamoxifen compared with typical estradiol concentrations (topical application, 0.5-2 mg/day): < 0.08 ng/mL
